Assay results published in patent US6544995B1, “Use of cysteine derivatives for preparing a medicine for treating pathologies resulting from the formation of heterotrimeric G protein” (Societe de Conseils de Recherches et d'Applications …, priority 1998, dated 2003).
pIC50: −log10 of the molar value. Where two headings read alike, the source gives them in different places. Where no end group is shown, it is not given here.

Experiments:
MAP kinase = MAP kinase activity in MCF7 cells; assay type: cell-based, human; conditions: for activity of the MAP kinase after EGF stimulation: pretreatment 1 hour, then EGF for 5 minutes
Protocol: After 24 hours of culture, the cells are incubated for 48 hours in medium containing no serum in order to return the cells to a state of rest. The cells are then treated for 1 hour either with compound I or with PD98059 (Calbiochem, France Biochem, Meudon, France), a specific inhibitor of MAP kinase activation. The cells are then stimulated (or not) for 5 minutes with 12.5 ng/ml of epidermal growth factor (EGF). The reaction is stopped by two washes with PBS (Gibco-Brl, Cergy-Pontoise, France), at 4° C. containing neither calcium nor magnesium and by adding 150 μl of lysis buffer at 4° C. the composition of which is the following: 10 mM of tris, 150 mM of NaCl, 2 mM of EGTA, 2 mM of dithiothreitol, 1 mM of PMSF, 2 mM of orthovanadate, 10 μg/ml of leupeptin and 10 μg/ml of aprotinin. Measurement of the proteins contained in the extracts is carried out by Bradford's method (Biorad reagents, Ivry-Sur-Seine, France). […] The radioactivity is determined using a Packard scintillation counter (Tricarb 5000CA).

MCF7 human tumour cells = assay: In vitro cell proliferation of MCF-7 cells (WST1); assay type: cell-based; conditions: 96 hours treatment, WST1 test, average of 2 experiments, read-out: IC50, inhibition of in vitro growth of MCF7 cells
Protocol: The cells were treated on day 1 for 96 hours with increasing concentrations of up to 50 μM of each of the compounds to be tested. After this period, quantification of cell proliferation is determined by a colorimetric test, based on the cleavage of the WST1 tetrazolum salt by the mitochondrial dehydrogenases in the viable cells, leading to the formation of formazan (Boehringer Mannheim, Meylan, France). These tests are carried out in duplicate with 8 determinations per concentration tested. For each compound to be tested, the values included in the linear part of the sigmoid were retained for linear regression analysis and used to estimate the inhibitory concentration (IC50).

adenylate cyclase [1] = conditions: pretreatment 30 minutes with 30 μM; forskolin 10 μM
Protocol: (§1) MCF-7 cells (2.10^4 cells/well) seeded in 24-well plates are cultured for 5 days in Dulbecco's modified Eagle medium (Gibco-Brl, Cergy-Pontoise, France) completed with 10% of foetal calf serum inactivated by heating (Gibco-Brl, Cergy-Pontoise, France ), 50000 units/l of penicillin and 50 mg/l streptomycin (Gibco-Brl, Cergy-Pontoise, France), and 2 mM of glutamin (Gibco-Brl, Cergy-Pontoise, France). The culture medium is replaced after two washes with a medium without a serum completed or uncompleted with the specified agents for a time indicated in the different figures. Agents activating the production of cyclic AMP are then added at 37° C. The reaction is stopped after 30 minutes by suppressing the medium and rapidly adding 100 μl of a 0.1N solution of HCl. These extracts are frozen at −80° C. until they are used. The concentration of cAMP is measured using a commercial measurement kit (reference NEK033 from NEN, Les Ulis, France), following the manufacturer's instructions. The radioactivity is determined by a Gamma counter (Gamma Master-1277, LKB, Turku, Finland).

adenylate cyclase [2] = system: adenylate cyclase
Protocol: as §1

[3] = system: production of cyclic AMP stimulated by VIP in MCF7 cells; assay: Cyclic AMP production stimulated by VIP in MCF-7 cells; assay type: cell-based, human; conditions: for Inhibition at 30 μM of production of cyclic AMP stimulated by VIP / inhibition at 30 µM: MCF7 cells, compound 30 μM for 30 minutes, then 10^-8 M VIP, n=1; for inhibition at 30 µM: Homo sapiens, 0.5 h
Protocol: The cells are incubated for 30 minutes in the presence or not of compounds I, II, III and IV (30 μM) which are then stimulated by 10^−8 M of VIP. The quantification of cyclic AMP is determined by radioimmunoassay. The data represents the average±MSD (n=5 for the control and n=1 for the different compounds).

[4] = system: production of cyclic AMP stimulated by VIP in MCF7 cells; assay: as above; assay type: cell-based, human
heterotrimeric G protein = assay type: cell-based, human

## COc1cccc(-c2cc(=O)c3ccccc3o2)c1N [PD98059, reference compound]
MAP kinase
  activity of the MAP kinase after EGF stimulation: halves

## COc1ccccc1-c1cn2c(n1)C(CC1CCCCC1)N(C(=O)C(N)CSSCC(N)C(=O)N1CCn3cc(-c4ccccc4OC)nc3C1CC1CCCCC1)CC2 (stereo not drawn) [compound (I)]
MAP kinase
  activity of the MAP kinase after EGF stimulation: halves
MAP kinase; treatment for 1 hour, no EGF
  basal activity of the MAP kinase: doubles
MCF7 human tumour cells
  pIC50: 5.03
Adenylate cyclase [1]
  effect on production of cyclic AMP induced by forskolin: does not modify
Adenylate cyclase [2]; treatment for 30 minutes
  effect on adenylate cyclase activity increased by prostaglandin E2: inhibited
[3]
  Inhibition at 30 μM of production of cyclic AMP stimulated by VIP: 86%
[4]; 100 μM, 30-minute pretreatment, VIP 10 nM
  inhibition of accumulation of cyclic AMP stimulated by VIP at 100 μM: almost complete inhibition
[4]; 30-minute pretreatment, VIP 10 nM
  inhibition of accumulation of cyclic AMP stimulated by VIP, concentration dependence: in a concentration-dependent manner
[4]; 1 hour treatment
  effect on response to VIP, treatment for an hour: sufficient to modify the response to VIP
[4]; 8 hours and 24 hours treatment, VIP
  effect on production of cyclic AMP, longer treatments: continue to inhibit
Heterotrimeric G protein
  effect on production of cyclic AMP stimulated by choleric toxin: greatly inhibited

## CC(C)CC1c2nc(-c3cccc4ccccc34)cn2CCN1C(=O)C(N)CSSCC(N)C(=O)N1CCn2cc(-c3cccc4ccccc34)nc2C1CC(C)C (stereo not drawn) [compound (II)]
MCF7 human tumour cells
  pIC50: 4.82
[3]
  Inhibition at 30 μM of production of cyclic AMP stimulated by VIP: 71%

## Cc1ccccc1-c1cn2c(n1)C(CC1CCCCC1)N(C(=O)C(N)CS)CC2 (stereo not drawn) [compound (III), 7-(2-amino-1-oxo-3-thiopropyl)-8-(cyclohexylmethyl)-2-(2-methylphenyl)-5,6,7,8-tetrahydroimidazo[1.2a]pyrazine]
MCF7 human tumour cells
  pIC50: 4.79
[3]
  Inhibition at 30 μM of production of cyclic AMP stimulated by VIP: 59%

## COC(=O)[C@@H](CC(C)C)NC(=O)c1ccc(NC[C@@H](N)CS)cc1-c1ccccc1 [compound (IV)]
MCF7 human tumour cells; Homo sapiens, MCF7
  pIC50: 4.46
[3]
  inhibition at 30 µM: 52%

## CCCCC1c2nc(-c3ccccc3OC)cn2CCN1C(=O)C(N)CS (stereo not drawn) [compound (V), 7-(2-amino-1-oxo-3-thiopropyl)-8-butyl-2-(2-methoxyphenyl)-5,6,7,8-tetrahydroimidazo[1.2a]pyrazine]
[3]
  Inhibition at 30 μM of production of cyclic AMP stimulated by VIP: 68%

## CCC(C)C1c2nc(-c3ccccc3OC)cn2CCN1C(=O)C(N)CSSCC(N)C(=O)N1CCn2cc(-c3ccccc3OC)nc2C1C(C)CC (stereo not drawn) [compound (VI), bis-1,1′-[7-(2-amino-1-oxo-3-thiopropyl)-2-(methoxyphenyl)-8-(1-methylpropyl)-5,6,7,8-tetrahydroimidazo[1.2a]pyrazine]]
[3]
  Inhibition at 30 μM of production of cyclic AMP stimulated by VIP: 52%

## CCCC[C@H]1CN(C(=O)c2cccc3ccccc23)CCN1C[C@@H]1CSSC[C@H](N)C(=O)N1 [compound (VII)]
[3]
  inhibition at 30 µM: 65%

## CCCCC[C@H](O)/C=C/[C@H]1[C@H](O)CC(=O)[C@@H]1C/C=C\CCCC(=O)O [prostaglandin E2, reference compound]
Adenylate cyclase [2]; prostaglandin E2 alone, MCF7 cells
  activity of adenylate cyclase: greatly increased

## EGF: epidermal growth factor used to stimulate MAP kinase [reference compound]
MAP kinase; stimulation by EGF for 5 minutes
  increase of MAP kinase activity: approximately 7 times

## VIP: vasoactive intestinal peptide, ligand of a G protein-coupled receptor stimulating cyclic AMP synthesis (HSDAVFTDNYTRLRKQMAVKKYLNSILN; ends and bridges not checked; UniProt P01282 125-152, looked up) [reference compound]
[3]; treatment of MCF-7 cells with VIP alone
  intracellular quantity of cyclic AMP: increases the intracellular quantity of cyclic AMP in a concentration-dependent manner
